Experimental data as given in the NIST ThermoML archive (doi:10.1021/je400246s).
Numbers after ± are expanded uncertainties.

What was measured:
[1] = Crystal; DTA
[2] = Molar enthalpy of transition or fusion; settings: Crystal; DSC

Normal melting temperature [1] [°C]	Molar enthalpy of transition or fusion [2] [kcal/mol]	Compound
162.1 ± 1.1	6.99 ± 0.454	O=C1c2ccccc2C(=O)c2c(Cl)cccc21 [1-chloroanthraquinone]
233.2 ± 1.1	8.49 ± 0.526	O=C(O)c1cccc(Cl)c1C(=O)c1ccccc1 [2-benzoyl-3-chlorobenzoic acid]
